Tests used:
Parameters in all cases: dose 0.5-1 mg/kg, route intravenous
Liver [1] = assay: Biodistribution in Sprague-Dawley rat liver at 0.5 to 1 mg/kg, iv after 15 mins by gamma-well counting analysis; type: ADME, organism-based; conditions: in vivo, 0.25 h
Spleen [2] = assay: Biodistribution in Sprague-Dawley rat spleen at 0.5 to 1 mg/kg, iv after 15 mins by gamma-well counting analysis; type: ADME, organism-based; conditions: in vivo, 0.25 h
Lung [3] = assay: Biodistribution in Sprague-Dawley rat lung at 0.5 to 1 mg/kg, iv after 15 mins by gamma-well counting analysis; type: ADME, organism-based; conditions: in vivo, 0.25 h
Heart [4] = assay: Biodistribution in Sprague-Dawley rat heart at 0.5 to 1 mg/kg, iv after 15 mins by gamma-well counting analysis; type: ADME, organism-based; conditions: in vivo, 0.25 h
Kidney [5] = assay: Biodistribution in Sprague-Dawley rat kidney at 0.5 to 1 mg/kg, iv after 15 mins by gamma-well counting analysis; type: ADME, organism-based; conditions: in vivo, 0.25 h
Muscle tissue [6] = assay: Biodistribution in Sprague-Dawley rat muscle at 0.5 to 1 mg/kg, iv after 15 mins by gamma-well counting analysis; type: ADME, organism-based; conditions: in vivo, 0.25 h
Bone [7] = assay: Biodistribution in Sprague-Dawley rat bone at 0.5 to 1 mg/kg, iv after 15 mins by gamma-well counting analysis; type: ADME, organism-based, Bone element; conditions: in vivo, 0.25 h
Blood [8] = assay: Biodistribution in Sprague-Dawley rat blood at 0.5 to 1 mg/kg, iv after 15 mins by gamma-well counting analysis; type: ADME, organism-based; conditions: in vivo, 0.25 h
Thyroid gland [9] = assay: Biodistribution in Sprague-Dawley rat thyroid at 0.5 to 1 mg/kg, iv after 15 mins by gamma-well counting analysis; type: ADME, organism-based; conditions: in vivo, 0.25 h
Liver [10] = assay: Biodistribution in Sprague-Dawley rat liver at 0.5 to 1 mg/kg, iv after 1 hr by gamma-well counting analysis; type: ADME, organism-based; conditions: in vivo
Spleen [11] = assay: Biodistribution in Sprague-Dawley rat spleen at 0.5 to 1 mg/kg, iv after 1 hr by gamma-well counting analysis; type: ADME, organism-based; conditions: in vivo
Lung [12] = assay: Biodistribution in Sprague-Dawley rat lung at 0.5 to 1 mg/kg, iv after 1 hr by gamma-well counting analysis; type: ADME, organism-based; conditions: in vivo
Heart [13] = assay: Biodistribution in Sprague-Dawley rat heart at 0.5 to 1 mg/kg, iv after 1 hr by gamma-well counting analysis; type: ADME, organism-based; conditions: in vivo
Kidney [14] = assay: Biodistribution in Sprague-Dawley rat kidney at 0.5 to 1 mg/kg, iv after 1 hr by gamma-well counting analysis; type: ADME, organism-based; conditions: in vivo
Muscle tissue [15] = assay: Biodistribution in Sprague-Dawley rat muscle at 0.5 to 1 mg/kg, iv after 1 hr by gamma-well counting analysis; type: ADME, organism-based; conditions: in vivo
Bone [16] = assay: Biodistribution in Sprague-Dawley rat bone at 0.5 to 1 mg/kg, iv after 1 hr by gamma-well counting analysis; type: ADME, organism-based, Bone element; conditions: in vivo
Blood [17] = assay: Biodistribution in Sprague-Dawley rat blood at 0.5 to 1 mg/kg, iv after 1 hr by gamma-well counting analysis; type: ADME, organism-based; conditions: in vivo
Thyroid gland [18] = assay: Biodistribution in Sprague-Dawley rat thyroid at 0.5 to 1 mg/kg, iv after 1 hr by gamma-well counting analysis; type: ADME, organism-based; conditions: in vivo
Liver [19] = assay: Biodistribution in Sprague-Dawley rat liver assessed per organ at 0.5 to 1 mg/kg, iv after 15 mins by gamma-well counting analysis; type: ADME, organism-based; conditions: in vivo, 0.25 h
Spleen [20] = assay: Biodistribution in Sprague-Dawley rat spleen assessed per organ at 0.5 to 1 mg/kg, iv after 15 mins by gamma-well counting analysis; type: ADME, organism-based; conditions: in vivo, 0.25 h
Lung [21] = assay: Biodistribution in Sprague-Dawley rat lung assessed per organ at 0.5 to 1 mg/kg, iv after 15 mins by gamma-well counting analysis; type: ADME, organism-based; conditions: in vivo, 0.25 h
Heart [22] = assay: Biodistribution in Sprague-Dawley rat heart assessed per organ at 0.5 to 1 mg/kg, iv after 15 mins by gamma-well counting analysis; type: ADME, organism-based; conditions: in vivo, 0.25 h
Stomach [23] = assay: Biodistribution in Sprague-Dawley rat stomach assessed per organ at 0.5 to 1 mg/kg, iv after 15 mins by gamma-well counting analysis; type: ADME, organism-based; conditions: in vivo, 0.25 h
Kidney [24] = assay: Biodistribution in Sprague-Dawley rat kidney assessed per organ at 0.5 to 1 mg/kg, iv after 15 mins by gamma-well counting analysis; type: ADME, organism-based; conditions: in vivo, 0.25 h
Small intestine [25] = assay: Biodistribution in Sprague-Dawley rat small intestine assessed per organ at 0.5 to 1 mg/kg, iv after 15 mins by gamma-well counting analysis; type: ADME, organism-based; conditions: in vivo, 0.25 h
Large intestine [26] = assay: Biodistribution in Sprague-Dawley rat large intestine assessed per organ at 0.5 to 1 mg/kg, iv after 15 mins by gamma-well counting analysis; type: ADME, organism-based; conditions: in vivo, 0.25 h
Muscle tissue [27] = assay: Biodistribution in Sprague-Dawley rat muscle assessed per organ at 0.5 to 1 mg/kg, iv after 15 mins by gamma-well counting analysis; type: ADME, organism-based; conditions: in vivo, 0.25 h
[28] = Biodistribution in Sprague-Dawley rat fat and fur assessed per organ at 0.5 to 1 mg/kg, iv after 15 mins by gamma-well counting analysis; type: ADME, organism-based, Adipose tissue; conditions: in vivo, 0.25 h
Bone [29] = assay: Biodistribution in Sprague-Dawley rat bone assessed per organ at 0.5 to 1 mg/kg, iv after 15 mins by gamma-well counting analysis; type: ADME, organism-based, Bone element; conditions: in vivo, 0.25 h
Blood [30] = assay: Biodistribution in Sprague-Dawley rat blood assessed per organ at 0.5 to 1 mg/kg, iv after 15 mins by gamma-well counting analysis; type: ADME, organism-based; conditions: in vivo, 0.25 h
Thyroid gland [31] = assay: Biodistribution in Sprague-Dawley rat thyroid assessed per organ at 0.5 to 1 mg/kg, iv after 15 mins by gamma-well counting analysis; type: ADME, organism-based; conditions: in vivo, 0.25 h
Liver [32] = assay: Biodistribution in Sprague-Dawley rat liver assessed per organ at 0.5 to 1 mg/kg, iv after 1 hr by gamma-well counting analysis; type: ADME, organism-based; conditions: in vivo
Spleen [33] = assay: Biodistribution in Sprague-Dawley rat spleen assessed per organ at 0.5 to 1 mg/kg, iv after 1 hr by gamma-well counting analysis; type: ADME, organism-based; conditions: in vivo
Lung [34] = assay: Biodistribution in Sprague-Dawley rat lung assessed per organ at 0.5 to 1 mg/kg, iv after 1 hr by gamma-well counting analysis; type: ADME, organism-based; conditions: in vivo
Heart [35] = assay: Biodistribution in Sprague-Dawley rat heart assessed per organ at 0.5 to 1 mg/kg, iv after 1 hr by gamma-well counting analysis; type: ADME, organism-based; conditions: in vivo
Stomach [36] = assay: Biodistribution in Sprague-Dawley rat stomach assessed per organ at 0.5 to 1 mg/kg, iv after 1 hr by gamma-well counting analysis; type: ADME, organism-based; conditions: in vivo
Kidney [37] = assay: Biodistribution in Sprague-Dawley rat kidney assessed per organ at 0.5 to 1 mg/kg, iv after 1 hr by gamma-well counting analysis; type: ADME, organism-based; conditions: in vivo
Small intestine [38] = assay: Biodistribution in Sprague-Dawley rat small intestine assessed per organ at 0.5 to 1 mg/kg, iv after 1 hr by gamma-well counting analysis; type: ADME, organism-based; conditions: in vivo
Large intestine [39] = assay: Biodistribution in Sprague-Dawley rat large intestine assessed per organ at 0.5 to 1 mg/kg, iv after 1 hr by gamma-well counting analysis; type: ADME, organism-based; conditions: in vivo
Muscle tissue [40] = assay: Biodistribution in Sprague-Dawley rat muscle assessed per organ at 0.5 to 1 mg/kg, iv after 1 hr by gamma-well counting analysis; type: ADME, organism-based; conditions: in vivo
[41] = Biodistribution in Sprague-Dawley rat fat and fur assessed per organ at 0.5 to 1 mg/kg, iv after 1 hr by gamma-well counting analysis; type: ADME, organism-based, Adipose tissue; conditions: in vivo
Bone [42] = assay: Biodistribution in Sprague-Dawley rat bone assessed per organ at 0.5 to 1 mg/kg, iv after 1 hr by gamma-well counting analysis; type: ADME, organism-based, Bone element; conditions: in vivo
Blood [43] = assay: Biodistribution in Sprague-Dawley rat blood assessed per organ at 0.5 to 1 mg/kg, iv after 1 hr by gamma-well counting analysis; type: ADME, organism-based; conditions: in vivo
Thyroid gland [44] = assay: Biodistribution in Sprague-Dawley rat thyroid assessed per organ at 0.5 to 1 mg/kg, iv after 1 hr by gamma-well counting analysis; type: ADME, organism-based; conditions: in vivo

Work on `CC(C)NCC(O)COc1ccc([125I])c2ccccc12` (racemic) yielded a Drug uptake (Liver [1]) of 0.74 % ID/g, a Drug uptake (Spleen [2]) of 1.15 % ID/g and a Drug uptake (Lung [3]) of 2.58 % ID/g. The Drug uptake (Heart [4]) was 0.35 % ID/g, the Drug uptake (Kidney [5]) was 0.98 % ID/g and the Drug uptake (Muscle tissue [6]) was 0.2 % ID/g. The Drug uptake (Bone [7]) was 0.16 % ID/g, the Drug uptake (Blood [8]) was 0.12 % ID/g and the Drug uptake (Thyroid gland [9]) was 2.76 % ID/g. It also gave a Drug uptake (Liver [10]) of 0.66 % ID/g, a Drug uptake (Spleen [11]) of 0.6 % ID/g and a Drug uptake (Lung [12]) of 2.01 % ID/g. For the same molecule, the Drug uptake (Heart [13]) was 0.19 % ID/g, the Drug uptake (Kidney [14]) was 0.76 % ID/g and the Drug uptake (Muscle tissue [15]) was 0.1 % ID/g. For the same molecule, the Drug uptake (Bone [16]) was 0.12 % ID/g, the Drug uptake (Blood [17]) was 0.1 % ID/g and the Drug uptake (Thyroid gland [18]) was 6.85 % ID/g. The Drug uptake (Liver [19]) was 7.3 %ID, the Drug uptake (Spleen [20]) was 0.52 %ID and the Drug uptake (Lung [21]) was 3.9 %ID. The Drug uptake (Heart [22]) was 0.26 %ID, the Drug uptake (Stomach [23]) was 1.99 %ID and the Drug uptake (Kidney [24]) was 1.83 %ID. For the same molecule, the Drug uptake (Small intestine [25]) was 12.98 %ID, the Drug uptake (Large intestine [26]) was 1.41 %ID and the Drug uptake (Muscle tissue [27]) was 19.67 %ID. For the same molecule, the Drug uptake [28] was 8.82 %ID, the Drug uptake (Bone [29]) was 2.52 %ID and the Drug uptake (Blood [30]) was 1.87 %ID. For the same molecule, the Drug uptake (Thyroid gland [31]) was 0.06 %ID, the Drug uptake (Liver [32]) was 7.08 %ID and the Drug uptake (Spleen [33]) was 0.4 %ID. The Drug uptake (Lung [34]) was 2.78 %ID, the Drug uptake (Heart [35]) was 0.16 %ID and the Drug uptake (Stomach [36]) was 2.24 %ID. For the same molecule, the Drug uptake (Kidney [37]) was 1.58 %ID, the Drug uptake (Small intestine [38]) was 16.23 %ID and the Drug uptake (Large intestine [39]) was 0.91 %ID. For the same molecule, the Drug uptake (Muscle tissue [40]) was 10.71 %ID, the Drug uptake [41] was 9.69 %ID and the Drug uptake (Bone [42]) was 1.84 %ID. For the same molecule, the Drug uptake (Blood [43]) was 1.44 %ID and the Drug uptake (Thyroid gland [44]) was 0.14 %ID.

Work on `CC(=O)c1cc(NC(=O)c2cccc([125I])c2)ccc1OCC(O)CNC(C)C` (racemic) yielded a Drug uptake (Liver [1]) of 2.4 % ID/g, a Drug uptake (Spleen [2]) of 0.97 % ID/g and a Drug uptake (Lung [3]) of 1.63 % ID/g. For the same molecule, the Drug uptake (Heart [4]) was 0.99 % ID/g, the Drug uptake (Kidney [5]) was 2.8 % ID/g and the Drug uptake (Muscle tissue [6]) was 0.22 % ID/g. The Drug uptake (Bone [7]) was 0.22 % ID/g, the Drug uptake (Blood [8]) was 0.09 % ID/g and the Drug uptake (Thyroid gland [9]) was 6.06 % ID/g. It also gave a Drug uptake (Liver [10]) of 1.59 % ID/g, a Drug uptake (Spleen [11]) of 0.6 % ID/g and a Drug uptake (Lung [12]) of 1.27 % ID/g. It also gave a Drug uptake (Heart [13]) of 0.58 % ID/g, a Drug uptake (Kidney [14]) of 1.16 % ID/g and a Drug uptake (Muscle tissue [15]) of 0.2 % ID/g. For the same molecule, the Drug uptake (Bone [16]) was 0.17 % ID/g, the Drug uptake (Blood [17]) was 0.06 % ID/g and the Drug uptake (Liver [19]) was 20.19 %ID. For the same molecule, the Drug uptake (Spleen [20]) was 0.52 %ID, the Drug uptake (Lung [21]) was 1.77 %ID and the Drug uptake (Heart [22]) was 0.66 %ID. It also gave a Drug uptake (Stomach [23]) of 1.26 %ID, a Drug uptake (Kidney [24]) of 4.38 %ID and a Drug uptake (Small intestine [25]) of 9.39 %ID. For the same molecule, the Drug uptake (Large intestine [26]) was 2.42 %ID, the Drug uptake (Muscle tissue [27]) was 16.64 %ID and the Drug uptake [28] was 7.66 %ID. For the same molecule, the Drug uptake (Bone [29]) was 2.49 %ID, the Drug uptake (Blood [30]) was 1 %ID and the Drug uptake (Thyroid gland [31]) was 0.12 %ID. It also gave a Drug uptake (Liver [32]) of 12.11 %ID, a Drug uptake (Spleen [33]) of 0.31 %ID and a Drug uptake (Lung [34]) of 1.41 %ID. For the same molecule, the Drug uptake (Heart [35]) was 0.31 %ID, the Drug uptake (Stomach [36]) was 1.19 %ID and the Drug uptake (Kidney [37]) was 1.83 %ID. The Drug uptake (Small intestine [38]) was 15.4 %ID, the Drug uptake (Large intestine [39]) was 1.01 %ID and the Drug uptake (Muscle tissue [40]) was 14.87 %ID. It also gave a Drug uptake [41] of 6.73 %ID, a Drug uptake (Bone [42]) of 1.94 %ID and a Drug uptake (Blood [43]) of 0.74 %ID. For the same molecule, the Drug uptake (Thyroid gland [44]) was 0.17 %ID.

— ChEMBL document CHEMBL3272333, “Synthesis and biologic distribution of radioiodinated beta-adrenergic antagonists” (J Med Chem, 1978)
